# Experimental data reported in publication PMC6593727 (Clinical Pharmacology in Drug Development, 2019).
# Read-outs that look alike come from different tables or passages of the source.
# What was measured:
# [1] = molecular target: T1, CYP2C19 (Homo sapiens, UniProt P33261); conditions: for AUC(0-inf): AUCinf; for half-life: t½
# [2] = molecular target: CYP3A4 (Homo sapiens, UniProt P08684); conditions: for AUC(0-inf): AUCinf; for Tmax: tmax (median [min‐max]); for half-life: t½
# [3] = molecular target: CYP2C9 (Homo sapiens, UniProt P11712); test: Inje cocktail DDI study: losartan and EXP‐3174 PK, assessment of CYP2C9 activity; conditions: for AUC(0-inf) / Cmax / Tmax / half-life: female, human, plasma, oral; for AUC(0-inf): AUCinf; for Tmax: tmax (median [min‐max]); for half-life: t½
# [4] = molecular target: CYP2D6 (Homo sapiens, UniProt P10635); conditions: for AUC(0-inf) / Cmax / Tmax / half-life: female, human, plasma, oral; for AUC(0-inf): AUCinf; for Tmax: tmax (median [min‐max]); for half-life: t½
# [5] = molecular target: T1, CYP2C19; conditions: single oral 20 mg omeprazole with 100 mg ASP8477 vs alone, female subjects; ref first‐in‐human study (8477‐CL‐0001); cited from earlier work
# [6] = cocktail alone (day 1), mean ± SD
# [7] = + 20 mg ASP8477 once daily (day 7), mean ± SD
# [8] = + 60 mg ASP8477 once daily (day 14), mean ± SD
# [9] = + 100 mg ASP8477 once daily (day 23), mean ± SD
# [10] = + 20 mg ASP8477 once daily (day 7)
# [11] = + 60 mg ASP8477 once daily (day 14)
# [12] = + 100 mg ASP8477 once daily (day 23)
# [13] = probe dextromethorphan, + 60 mg ASP8477 once daily (day 14), mean ± SD
# [14] = probe dextromethorphan, + 100 mg ASP8477 once daily (day 23), mean ± SD
# [15] = probe dextromethorphan, + 20 mg ASP8477 once daily (day 7)
# [16] = probe dextromethorphan, + 60 mg ASP8477 once daily (day 14)
# [17] = probe dextromethorphan, + 100 mg ASP8477 once daily (day 23)
# [18] = probe dextromethorphan, + 20 mg ASP8477 once daily (day 7), mean ± SD
# [19] = female, human, plasma, oral, probe midazolam, + 20 mg ASP8477 once daily (day 7), mean ± SD
# [20] = female, human, plasma, oral, probe midazolam, + 60 mg ASP8477 once daily (day 14), mean ± SD
# [21] = female, human, plasma, oral, probe midazolam, + 100 mg ASP8477 once daily (day 23), mean ± SD
# [22] = female, human, plasma, oral, + 20 mg ASP8477 once daily (day 7), mean ± SD
# [23] = female, human, plasma, oral, + 60 mg ASP8477 once daily (day 14), mean ± SD
# [24] = female, human, plasma, oral, cocktail alone (day 1), mean ± SD
# Chain of CYP3A4 (P08684 whole entry): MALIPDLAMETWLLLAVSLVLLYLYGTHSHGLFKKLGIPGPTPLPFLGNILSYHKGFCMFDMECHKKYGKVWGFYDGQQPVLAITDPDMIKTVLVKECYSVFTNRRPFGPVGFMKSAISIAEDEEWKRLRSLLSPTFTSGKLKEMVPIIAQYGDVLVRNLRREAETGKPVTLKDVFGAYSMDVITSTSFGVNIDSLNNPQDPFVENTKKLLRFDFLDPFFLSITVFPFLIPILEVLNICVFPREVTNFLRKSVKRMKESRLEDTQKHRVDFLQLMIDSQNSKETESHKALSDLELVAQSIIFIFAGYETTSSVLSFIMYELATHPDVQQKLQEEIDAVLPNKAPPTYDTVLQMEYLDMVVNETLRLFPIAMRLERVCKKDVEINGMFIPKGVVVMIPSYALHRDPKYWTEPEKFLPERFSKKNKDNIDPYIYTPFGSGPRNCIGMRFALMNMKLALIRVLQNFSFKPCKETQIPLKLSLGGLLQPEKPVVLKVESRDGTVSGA
# Chain of CYP2C9 (P11712 whole entry): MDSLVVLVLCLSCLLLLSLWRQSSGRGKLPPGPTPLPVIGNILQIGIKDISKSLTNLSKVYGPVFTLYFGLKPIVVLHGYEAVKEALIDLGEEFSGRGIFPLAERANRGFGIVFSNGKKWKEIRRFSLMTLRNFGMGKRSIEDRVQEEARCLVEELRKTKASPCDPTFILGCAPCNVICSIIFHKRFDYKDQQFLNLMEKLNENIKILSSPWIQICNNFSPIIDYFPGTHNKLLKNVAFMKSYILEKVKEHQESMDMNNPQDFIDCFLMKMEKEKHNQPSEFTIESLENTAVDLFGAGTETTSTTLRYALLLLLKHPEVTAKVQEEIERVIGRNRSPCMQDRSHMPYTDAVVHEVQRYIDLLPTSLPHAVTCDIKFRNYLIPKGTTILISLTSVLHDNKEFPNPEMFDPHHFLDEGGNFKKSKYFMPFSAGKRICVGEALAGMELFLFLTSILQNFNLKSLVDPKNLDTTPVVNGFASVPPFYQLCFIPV
# T1 sequence (P33261 whole entry): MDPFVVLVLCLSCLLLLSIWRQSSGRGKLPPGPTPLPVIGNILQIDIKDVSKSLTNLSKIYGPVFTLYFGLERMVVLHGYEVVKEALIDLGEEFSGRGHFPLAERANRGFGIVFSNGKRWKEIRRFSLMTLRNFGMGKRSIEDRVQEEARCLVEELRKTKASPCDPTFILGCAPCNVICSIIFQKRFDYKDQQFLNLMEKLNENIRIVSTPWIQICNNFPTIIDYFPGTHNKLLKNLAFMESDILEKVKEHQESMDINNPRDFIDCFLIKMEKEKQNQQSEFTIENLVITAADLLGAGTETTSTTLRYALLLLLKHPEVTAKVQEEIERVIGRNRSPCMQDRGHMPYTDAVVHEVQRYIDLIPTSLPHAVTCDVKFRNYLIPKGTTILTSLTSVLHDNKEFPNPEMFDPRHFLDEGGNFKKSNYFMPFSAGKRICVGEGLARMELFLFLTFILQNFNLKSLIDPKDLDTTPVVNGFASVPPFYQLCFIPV
# Chain of CYP2D6 (P10635 whole entry): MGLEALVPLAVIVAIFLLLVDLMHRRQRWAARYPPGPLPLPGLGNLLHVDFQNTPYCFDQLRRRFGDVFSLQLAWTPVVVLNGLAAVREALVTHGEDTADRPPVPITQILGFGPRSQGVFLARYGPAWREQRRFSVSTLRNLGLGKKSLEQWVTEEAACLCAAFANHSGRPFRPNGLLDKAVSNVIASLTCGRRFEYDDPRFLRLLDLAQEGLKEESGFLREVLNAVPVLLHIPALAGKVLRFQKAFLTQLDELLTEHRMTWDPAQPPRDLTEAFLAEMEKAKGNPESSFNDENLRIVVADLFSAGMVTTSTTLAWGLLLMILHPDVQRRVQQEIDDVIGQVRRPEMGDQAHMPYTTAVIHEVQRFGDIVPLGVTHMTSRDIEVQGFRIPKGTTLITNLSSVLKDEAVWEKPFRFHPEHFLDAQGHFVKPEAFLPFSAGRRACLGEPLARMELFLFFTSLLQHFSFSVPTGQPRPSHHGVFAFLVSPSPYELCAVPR
smiles,measurement,setting,value
"COc1ccc2nc([S+]([O-])Cc3ncc(CO)c(OC)c3C)[nH]c2c1 (stereo not drawn) [5‐OH‐Omeprazole, 5‐hydroxyomeprazole]",tmax (median [min‐max]),[1]; cocktail alone (day 1),2.0 (0.98‐4.0) h
same,AUCinf,[1]; [6],550 ± 130 ng·h/mL
same,Cmax,[1]; [6],230 ± 76 ng/mL
same,t½,[1]; [6],1.4 ± 0.56 h
"OCc1ncc2n1-c1ccc(Cl)cc1C(c1ccccc1F)=NC2 [1‐OH‐Midazolam, 1‐hydroxymidazolam]",tmax (median [min‐max]),[2]; cocktail alone (day 1),0.52 (0.48‐1.0) h
same,AUCinf,[2]; [6],12 ± 6.1 ng·h/mL
same,Cmax,[2]; [6],5.5 ± 3.0 ng/mL
same,t½,[2]; [6],7.8 ± 13 h
"CCCCc1nc(Cl)c(CO)n1Cc1ccc(-c2ccccc2-c2nn[nH]n2)cc1 [Losartan, losartan, reference compound]",CL/F,[3]; [6],140 ± 61 L/h
same,AUC(0-inf),[3]; [7],230 ± 100 ng·h/mL
same,AUC(0-inf),[3]; [8],320 ± 140 ng·h/mL
same,AUC(0-inf),[3]; [9],410 ± 180 ng·h/mL
same,AUC(0-inf),[3]; [6],220 ± 100 ng·h/mL
same,Cmax,[3]; [7],78 ± 37 ng/mL
same,Cmax,[3]; [8],81 ± 59 ng/mL
same,Cmax,[3]; [9],80 ± 64 ng/mL
same,Cmax,[3]; [6],64 ± 33 ng/mL
same,Tmax,[3]; [10],0.52 h
same,Tmax,[3]; [11],0.52 h
same,Tmax,[3]; [12],0.5 h
same,Tmax,[3]; cocktail alone (day 1),1 h
same,half-life,[3]; [7],4 ± 2.2 h
same,half-life,[3]; [8],5 ± 2.2 h
same,half-life,[3]; [9],7.6 ± 3.3 h
same,half-life,[3]; [6],3.7 ± 2.5 h
"CCCCc1nc(Cl)c(C(=O)O)n1Cc1ccc(-c2ccccc2-c2nn[nH]n2)cc1 [EXP‐3174, losartan acid]",AUC(0-inf),[3]; [7],1100 ± 280 ng·h/mL
same,AUC(0-inf),[3]; [8],960 ± 240 ng·h/mL
same,AUC(0-inf),[3]; [9],780 ± 250 ng·h/mL
same,AUC(0-inf),[3]; [6],1100 ± 370 ng·h/mL
same,Cmax,[3]; [7],96 ± 48 ng/mL
same,Cmax,[3]; [8],54 ± 26 ng/mL
same,Cmax,[3]; [9],35 ± 19 ng/mL
same,Cmax,[3]; [6],100 ± 65 ng/mL
same,Tmax,[3]; [10],5 h
same,Tmax,[3]; [11],8 h
same,Tmax,[3]; [12],8.1 h
same,Tmax,[3]; cocktail alone (day 1),4 h
same,half-life,[3]; [7],8.8 ± 3.5 h
same,half-life,[3]; [8],13 ± 3.7 h
same,half-life,[3]; [9],12 ± 2.5 h
same,half-life,[3]; [6],8 ± 0.64 h
"COc1ccc2c(c1)[C@]13CCCC[C@@H]1[C@H](C2)N(C)CC3 [Dextromethorphan, dextromethorphan, reference compound]",CL/F,[4]; [6],4000 ± 3200 L/h
same,AUC(0-inf),[4]; [7],16 ± 12 ng·h/mL
same,AUC(0-inf),[4]; [6],12 ± 7.9 ng·h/mL
same,Cmax,[4]; [7],1.8 ± 1.2 ng/mL
same,Cmax,[4]; [6],1.3 ± 0.72 ng/mL
same,AUC(0-inf),[4]; [13],39 ± 25 ng·h/mL
same,AUC(0-inf),[4]; [14],65 ± 44 ng·h/mL
same,Cmax,[4]; [13],3.8 ± 2.3 ng/mL
same,Cmax,[4]; [14],5.6 ± 3.1 ng/mL
same,Tmax,[4]; [15],3 h
same,Tmax,[4]; [16],3.1 h
same,Tmax,[4]; [17],3 h
same,half-life,[4]; [18],7.7 ± 2.1 h
same,half-life,[4]; [13],9.3 ± 1.4 h
same,half-life,[4]; [14],9.9 ± 1.5 h
same,Tmax,[4]; cocktail alone (day 1),2 h
same,half-life,[4]; [6],8 ± 2.5 h
"CN1CC[C@@]23CCCC[C@@H]2[C@@H]1Cc1ccc(O)cc13 [Dextrorphan, dextrorphan]",AUC(0-inf),[4]; [7],2400 ± 420 ng·h/mL
same,AUC(0-inf),[4]; [6],2400 ± 450 ng·h/mL
same,Cmax,[4]; [7],470 ± 110 ng/mL
same,Cmax,[4]; [6],490 ± 133 ng/mL
same,AUC(0-inf),[4]; [13],2700 ± 510 ng·h/mL
same,AUC(0-inf),[4]; [14],3000 ± 520 ng·h/mL
same,Cmax,[4]; [13],430 ± 110 ng/mL
same,Cmax,[4]; [14],400 ± 100 ng/mL
same,Tmax,[4]; [15],2 h
same,Tmax,[4]; [16],3.1 h
same,Tmax,[4]; [17],3 h
same,half-life,[4]; [18],6.5 ± 1.7 h
same,half-life,[4]; [13],8.8 ± 2.1 h
same,half-life,[4]; [14],9.9 ± 2.4 h
same,Tmax,[4]; cocktail alone (day 1),2 h
same,half-life,[4]; [6],5.8 ± 1.2 h
"Cc1ncc2n1-c1ccc(Cl)cc1C(c1ccccc1F)=NC2 [Midazolam, midazolam]",CL/F,[2]; [6],66 ± 15 L/h
same,AUC(0-inf),[2]; [19],38 ± 11 ng·h/mL
same,AUC(0-inf),[2]; [20],49 ± 15 ng·h/mL
same,AUC(0-inf),[2]; [21],51 ± 15 ng·h/mL
same,Cmax,"[2]; female, human, plasma, oral, probe midazolam, Cmax, + 20 mg ASP8477 once daily (day 7), mean ± SD",16 ± 5.7 ng/mL
same,Cmax,"[2]; female, human, plasma, oral, probe midazolam, Cmax, + 60 mg ASP8477 once daily (day 14), mean ± SD",20 ± 5.1 ng/mL
same,Cmax,"[2]; female, human, plasma, oral, probe midazolam, Cmax, + 100 mg ASP8477 once daily (day 23), mean ± SD",21 ± 5.1 ng/mL
same,Tmax,"[2]; female, human, plasma, oral, probe midazolam, + 20 mg ASP8477 once daily (day 7)",0.52 h
same,Tmax,"[2]; female, human, plasma, oral, probe midazolam, + 60 mg ASP8477 once daily (day 14)",0.52 h
same,Tmax,"[2]; female, human, plasma, oral, probe midazolam, + 100 mg ASP8477 once daily (day 23)",0.5 h
same,Tmax,"[2]; female, human, plasma, oral, probe midazolam, cocktail alone (day 1)",0.52 h
same,half-life,[2]; [19],5 ± 0.93 h
same,half-life,[2]; [20],5.1 ± 0.95 h
same,half-life,[2]; [21],5.1 ± 1.2 h
"COc1ccc2[nH]c([S+]([O-])Cc3ncc(C)c(OC)c3C)nc2c1 (stereo not drawn) [Omeprazole, omeprazole]",increase of omeprazole AUCinf,[5],7 fold
same,increase of omeprazole Cmax,[5],3.5 fold
same,CL/F,[1]; [6],40 ± 20 L/h
same,AUC(0-inf),[1]; [22],1200 ± 520 ng·h/mL
same,AUC(0-inf),[1]; [23],2500 ± 680 ng·h/mL
same,AUC(0-inf),"[1]; female, human, plasma, oral, + 100 mg ASP8477 once daily (day 23), mean ± SD",3300 ± 1100 ng·h/mL
same,AUC(0-inf),[1]; [24],630 ± 300 ng·h/mL
same,Cmax,"[1]; female, human, plasma, oral, Cmax, + 20 mg ASP8477 once daily (day 7), mean ± SD",640 ± 190 ng/mL
same,Cmax,"[1]; female, human, plasma, oral, Cmax, + 60 mg ASP8477 once daily (day 14), mean ± SD",910 ± 260 ng/mL
same,Cmax,"[1]; female, human, plasma, oral, Cmax, + 100 mg ASP8477 once daily (day 23), mean ± SD",1100 ± 250 ng/mL
same,Cmax,"[1]; female, human, plasma, oral, Cmax, cocktail alone (day 1), mean ± SD",320 ± 150 ng/mL
same,half-life,[1]; [22],0.77 ± 0.2 h
same,half-life,[1]; [23],1.1 ± 0.25 h
same,half-life,[1]; [24],0.79 ± 0.17 h
